{"source": "patent US5128420A", "about": "“Method of making hydroxamic acid polymers from primary amide polymers” (Massachusetts Institute of Technology, priority 1988, dated 1992)", "tested_on": "urease forming bacteria, Proteus", "test": "Urease inhibition activity (ammonia production by urease forming bacteria in artificial urine)", "format": "cell-based", "procedure": "PHA was tested for urease inhibition activity using the procedure of Griffith et al in Investigative Urology 13(5),346-350(1976). Briefly, one square centimeter of agar slab containing a layer of urease forming bacteria, Proteus, was dissolved in 25 ml of artificial urine made of 25 g urea dissolved in one liter water. 30 mg polymer was added per ml urine and the mixture incubated overnight at 37° C. The production of ammonia, indicative of urease activity, was measured using an amino acid analyzer.\n*% activity was estimated relative to AHA from the ratio between the\ndecrease in ammonia number of the polymer and AHA.", "data": [{"smiles": "CC(=O)NO", "note": "[AHA, acetyl hydroxamic acid]", "values": [{"measurement": "Ammonia", "setting": "30 mg per ml artificial urine, overnight at 37° C., amino acid analyzer", "value": "1165-1331"}, {"measurement": "% Activity", "setting": "estimated relative to AHA from the ratio between the decrease in ammonia number of the polymer and AHA", "value": 100, "unit": "%"}]}]}
